US6770738B1, “Higher order structure and binding of peptide nucleic acids” (ISIS Pharmaceuticals, Inc., priority 1992, dated 2004)

Legend:
[1] = test system: 264 bp EcorI/PvuII fragment of pT8C2A8G2; test: KMnO4 and DMS probing of PNA binding to double-stranded DNA; conditions: pH 7.5, 5 μM PNA, compared to pH 6.5 and 5.5
Experimental: Probing was effected in 100μ buffer (S1: 100 mM NaCl, 1 mM ZnSO4, 50 mM NaAc, pH 4.5; KMnO4/dimethyl sulphate (DMS): 10 mM Na-cacodylate, 1 mM EDTA, pH 7.0 or as other wise noted) containing about 200 cps ^32P-labeled DNA fragment, 0.5 μg calf thymus DNA and the desired amount of PNA. Following a preincubation for 60 min at 37° C., the probing reagent was added and the incubation was continued at room temperature. The reactions were terminated by the addition of a stop-buffer. The DNA was precipitated by addition of 200 μL. 2% KAc in 96% EtOH and was analyzed by electrophoresis in 10% polyacrylamide sequencing gels. Radioactive DNA bands were visualized by autoradiography using amplifying screens and Agfa curix RPA X-ray films exposed at −70° C.
Probing conditions were: S1: 0.5 U/μl, 5 min. stopped with 3 μl 1 M EDTA; KMnO4: 1 mM, 15 sec. stopped with 50 μl 1M […], 1.5 M NaAc, pH 7.0; DMS: 1% DMS, 15 sec., stopped as for KMnO4 probing. Samples probed with DMS or KMnO4 were treated with piperidine (0.5 M, 90° C., 20 min.) prior to gel analysis.
For this example the 264 bp EcorI/PvuII fragment of pT8C2A8G2 was used that was 3′-^32P-end-labeled at the EcorI sit. Probing was effected as per the protocols of Example 12. The results are shown in FIG. 12 where in lanes 1 & 9 are controls without PNA. Lanes 1-7 are KMnO4 probing while lanes 9-15 are DMS probing. […]

[2] = test system: pT9CT9C plasmid linearized by CfrlOI; test: Site-specific S1 nuclease digestion of plasmid with two PNA sites complexed with PNA; format: biochemical; conditions: 30 units S1 nuclease; target sites are for T5CT4
Description: was cloned into the Sal1 site of the pUC19 plasmid. This plasmid, which contained two binding sites for PNA H-T5CT4-LysNH2 (SEQ ID NO:6) separated by six base pairs, was designated pT9CT9C. Strand displacement in the two T5CT4 sites led to opening of the entire region, including the sequence GTCGAC/GACGAC, providing a substrate for the S1 nuclease in both strands. As control, a pT9C-5 plasmid was used, which carried only one T5CT4 (SEQ ID NO:6) insert cloned into the SalI site of the pUC19 plasmid.
cloned in the Sal1 site of the pUC19 polylinker. The pT9C-5 plasmid carried the single insert A5GA4/CT5 (SEQ ID NO:4) cloned in the same site. The PNA-DNA complexes were prepared as described in Example 2 with the only difference being the duration of the incubation was 2 hours. Digestion by 30 units of the S1 nuclease was performed in the same buffer as described in Example 2 with two exceptions, lanes 2 and 4. In lane 2, 15 units of the enzyme were used, whereas in lane 4 200 mM NaCl and 1 mM of ZnSO4 were added to the buffer. Lane 1: the reference band obtained by digestion with the BamHI restriction enzyme of the pUC 19 plasmid linearized by the CfrlOI restriction enzyme. Lanes 2-4 site-specific digestion by the S1 nuclease of the linearized pT9C plasmid complexed with PNA H-T5CT4-LysNH2 (SEQ ID NO:6). Lanes 5-7: various controls. Lane 8: the same experiment as in lane 3, but using PNA T10 (SEQ ID NO:2) instead of T4CT5 (SEQ ID NO:8). Lane 9: the same experiment as in lane 3, but using PNA T2CT2CT4 (SEQ ID NO:1) instead of T4CT5 (SEQ ID NO:8). Lane 10: the same experiment as in lane 3, but using the pT9C-5 plasmid instead of the pT9C. In the header PNA T5CT4 (SEQ ID NO:6) is labelled as 1, T10 (SEQ ID NO:2) as 2 and T2CT2CT4 (SEQ ID NO:1) as 3.
The bands observed by gel electrophoresis have the same position and width as the band created by the BamHI restriction enzyme. […] Moreover, under the much milder S1 nuclease treatment necessary to generate the data for the pT9CT9C, the yield of double-stranded breaks in the pT9C-5 plasmid was extremely low (lane 10).

complementary DNA = test: Thermodynamics of duplex formation with DNA; format: binding
Experimental: (§1) Thermodynamics parameters for hybridization can be extracted from thermal stability measurements when these are performed at varying concentrations of the complexes, or from the shape of the thermal denaturation curves. Both methods were used to determine ΔH°, ΔS° and ΔG° for formation of the PNA/RNA, DNA/RNA, PNA/DNA and DNA/DNA duplexes (Table III). It is remarkable that the decrease in entropy is almost identical for the formation of DNA/DNA and PNA/DNA duplexes and that both reactions are strongly enthalpy driven.

complementary RNA [3] = test: Melting temperature of complexes with complementary RNA; format: binding; conditions: 100 mM NaCl, 10 mM Na-phosphate, 0.1 mM EDTA, pH 7; 4 μM of each strand
Experimental: (§2) The thermal stability measured as the melting temperature, Tm, of complexes between the pentadecamer, H-TGTACGTCACAACTA-NH2 (SEQ ID NO:10) and the complementary deoxyoligonucleotide 3′-ACATGCAGTGTTGAT (SEQ ID NO:47) (termed anti-parallel orientation: amino terminal of the PNA complementary to the 3′-end of the oligonucleotide) was 69.5° C. (see Table II), whereas the Tm of the corresponding PNA-DNA complex in parallel orientation was 56.1° C. The Tm for the PNA-RNA complexes was 72.3 and 51.2° C., respectively (see Table II). The orientation preference was further settled by using two decamer PNAs, and hybridizing these to complementary oligonucleotides in both orientations. The anti-parallel orientation was preferred in all cases (see Table II). Furthermore, it is noteworthy that virtually identical Tms were obtained regardless of which strand is the PNA and which is the DNA (see Table II, 2nd & 3rd row).

[4] = test system: complementary deoxyoligonucleotide; test: Melting temperature of complexes with complementary DNA; format: binding; conditions: 100 mM NaCl, 10 mM Na-phosphate, 0.1 mM EDTA, pH 7; 4 μM of each strand
Experimental: as §2

complementary RNA [5] = test: Thermodynamics of duplex formation with RNA; format: binding
Experimental: as §1

[6] = test system: RNA target 5′-TAGTTGTGACGTACA-3; test: Equilibrium and rate constants for duplexes with RNA (gel-shift); format: binding; conditions: [Na+] 0.1 M, 37 ° C.; 100 mM NaCl, 10 mM phosphate, 1 mM EDTA, pH 7.0; gel-shift with 32P-labeled RNA
[7] = test system: A4GA2GA2 target (pA8G2KS/T3, pT8C2KS/T7 RNA polymerase); test: Transcription elongation arrest using T3 or T7 RNA polymerase, mixed A/G PNA targets; format: biochemical; conditions: compared to Example 22
Experimental: The complex between the desired PNA and the desired DNA (100 ng) cleaved with the desired restriction enzyme was formed by incubation in 14 μL 10 mM Tris-HCl, 1 mM EDTA, (pH 7.4) buffer for 60 min at 37° C. Subsequently 4 μL 5× concentrated polymerase buffer (0.2 M Tris-HCl, pH 8.0, 125 mM NaCl, 40 mM MgCl2 10 mM spermidine) was added together with 15 U of RNA polymerase and ATP (10 μM), CTP (10 mM), UTP (1 mM) and ^32P-UTP (0.1 μCi). The incubation was continued for 10 min. Following ethanol precipitation, the RNA was analyzed by electrophoresis in polyacrylamide sequencing gels, and radialabeled RNA bands were visualized by autoradiography (using Agfa Curix RPI X-ray films and intensifying screens). Quantitation was performed by densitometric scanning using a Molecular Dynamics laser scanner and the ImageQuant™ software.
Samples identical to those used for Example 20 were analyzed by electrophoresis in a polyacrylamide sequencing gel. The results are shown in FIG. 23 where, Lanes 1-4: pA10KS/T3 RNA polymerase; lanes 5-8: pT10KS/T7 RNA polymerase; lanes 9-12: pA8G2KS/T3 RNA polymerase lanes 13-16: pT8C2KST7 RNA polymerase. The plasmid used in the samples of lanes 1-3 was cleaved with Xbal, that in lanes 6-8 with Pst1, that in lanes 9-11 with BamH1 and that in lanes 14-16 with HindIII. Lanes 1, 8, 9 & 16 are controls without PNA. […]

5′d(AAAAGGAGAG) = test: Melting temperature of complex with decamer; format: binding; conditions: pH 7
Experimental: (§3) The dimer prepared in Example 53 was incorporated into PNA H-TT(detT-idaT)CCTCTC-LysNH2 (SEQ ID NO:53) generally in accordance with Example 1. The melting temperatures, Tm, of complexes between this PNA and decamers 5′d(AAAAGGAGAG) (SEQ ID NO:54) and 5′d(GAGAGGAAAA) (SEQ ID NO:55) were 55° C. and 43.5° C., respectively, at pH 7. By comparison, the Tm of complexes between PNA H-TTTCCTCTC-LysNH2 (SEQ ID NO:56), prepared generally in accordance with Example 1, and these decamers was 58.5° C. and 40.5° C., respectively, at pH 7.

5′d(GAGAGGAAAA) = test: Melting temperature of complex with decamer; format: binding; conditions: pH 7
Experimental: as §3

[8] = 8 μM, average of the two methods
[9] = 8 μM, fit to modified two state model
[10] = 8 μM, linear plots of 1/TM versus log (concentration)
[11] = fit to modified two state model
[12] = fit to modified two state model, 100 mM NaCl, 10 mM Na-phosphate, 0.1 mM EDTA, pH 7.0
[13] = linear plots of 1/TM versus log (concentration)

With “H-T2CT2CT4LysNH2 [PNA H-T2CT2CT4-LysNH2]” the “strand displacement binding (KMnO4 and DMS probing)” value [1] was “Very little binding” and the “S1 nuclease digestion of pT9CT9C plasmid complexed with PNA” value [2] was “very weak digestion”.

In the case of “DNA TGTACGTCACAACTA: DNA oligonucleotide 5′-TGTACGTCACAACTA-3′ as first strand of reference duplexes (DNA, backbone and methylation of C not given here) [reference compound]”, the “TM (average of the two methods)” value (complementary DNA; [8]) is reported as 53.5 °C, the “TM (melting curve fit)” value (complementary DNA; [9]) is reported as 53.6 °C and the “TM (1/TM versus log concentration)” value (complementary DNA; [10]) is reported as 53.5 °C. The “ΔG°37 (average of the two methods)” value (complementary DNA; average of the two methods) was -13.1 kcal/mol, the “ΔH° (average of the two methods)” value (complementary DNA; average of the two methods) was -98.4 kcal/mol and the “ΔS° (average of the two methods)” value (complementary DNA; average of the two methods) was −275.1 eu. The “ΔG°3 (melting curve fit)” value (complementary DNA; [11]) was −12.7, the “ΔS° (melting curve fit)” value (complementary DNA; [11]) was −253.9 eu and the “ΔH° (melting curve fit)” value (complementary DNA; [12]) was -91.5 kcal/mol. The “ΔG°37 (1/TM versus log concentration)” value (complementary DNA; [13]) was −13.4 kcal/mol, the “ΔH° (1/TM versus log concentration)” value (complementary DNA; [13]) was −105.3 kcal/mol and the “ΔS° (1/TM versus log concentration)” value (complementary DNA; [13]) was −296.2 eu. For the same substance, the “Melting temperature Tm, DNA:RNA” value (complementary RNA [3]) was 50.6 °C, the “Melting temperature Tm, DNA:DNA” value [4] was 53.3 °C and the “TM (average of the two methods)” value (complementary RNA [5]; [8]) was 50.0 °C. For the same substance, the “TM (melting curve fit)” value (complementary RNA [5]; [9]) was 49.8 °C, the “TM (1/TM versus log concentration)” value (complementary RNA [5]; [10]) was 50.1 °C and the “ΔG°37 (average of the two methods)” value (complementary RNA [5]; average of the two methods) was -12.6 kcal/mol. The “ΔH° (average of the two methods)” value (complementary RNA [5]; average of the two methods) was -111.5 kcal/mol, the “ΔS° (average of the two methods)” value (complementary RNA [5]; average of the two methods) was −318.9 eu and the “ΔG°3 (melting curve fit)” value (complementary RNA [5]; [11]) was −11.8. The “ΔS° (melting curve fit)” value (complementary RNA [5]; [11]) was −264.9 eu, the “ΔH° (melting curve fit)” value (complementary RNA [5]; [12]) was -94.0 kcal/mol and the “ΔG°37 (1/TM versus log concentration)” value (complementary RNA [5]; [13]) was −13.3 kcal/mol. For the same substance, the “ΔH° (1/TM versus log concentration)” value (complementary RNA [5]; [13]) was −128.9 kcal/mol, the “ΔS° (1/TM versus log concentration)” value (complementary RNA [5]; [13]) was −372.8 eu and the Kd [6] was 2 nM.

In the case of H-T4CT2CT2LysNH2 [PNA H-T4CT2CT2LysNH2], the transcription arrest efficiency [7] is reported as “much less efficient”.

With “H-TTTCCTCTC-LysNH2 [PNA H-TTTCCTCTC-LysNH2]” the “melting temperature Tm” value (5′d(AAAAGGAGAG)) was 58.5 °C and the “melting temperature Tm” value (5′d(GAGAGGAAAA)) was 40.5 °C.
